Results from patent US20260297035A1, “PROTEIN KINASE INHIBITORS AND USES THEREOF” (DELiver Therapeutics, Inc., priority 2023, published 2026).

Legend:
K562 = experiment: In vitro cytotoxic activity (CellTiterGlo), K562 (CML); format: cell-based; conditions: Homo sapiens, 48-hours, read-out: K562 LD50
Procedure: Non-metabolized targeted toxicity, or general toxicity, of compounds was assessed by treating a panel of selected cell lines in culture with a dilution series of test compounds and the lethal dose that will kill half of the cells (i.e., the LD50) was determined. Compounds herein were assayed against a panel of cytokine-independent Philadelphia chromosome (BCR-ABL1 translocation) positive (Ph+) leukemia and lymphoma cell lines along with several control cell lines that were ABL1-independent. The panel included murine cell lines BaF3-wildtype (wt), BaF3-mutants (BaF3-wt cells engineered to be reliant on various kinase domain mutations with the BCR-ABL1 fusion protein), and various ALL and CML human cell lines, including SD-1, TOM-1, NALM-21, K562, Jeko-1, BV173, and KCL-22.
To test the cytotoxic activity of compounds herein, 1.6E4 cells were plated in 96-well plates at a final volume of 135 μL per well. Compounds were then added to the wells. In general, final concentrations of compounds started at a maximum concentration of […] and were diluted by half-log concentrations down to a final concentration of 0.316 nM. However, different cell lines required varying drug concentration ranges for optimal LD50 calculations. To create half-log dilutions, 40 mM DMSO solutions of compounds were diluted in half-log iterations to generate 400× starting concentration of compounds in DMSO. The 400× compound solutions were then diluted by 40-fold by adding 5 μL of 400× DMSO stock to 195 μL cell culture media, generating 10× drug concentrations in cell culture media. Then 15 μL of the 10× drug solutions were added to the 135 μL volume of cell suspension, resulting in 1× final drug concentrations with 0.25% DMSO in all wells. 48-hours after adding compounds, cells were measured for relative viability to generate cytotoxicity curves associated with the varying concentrations of compounds. […] LD50 values were measured by normalizing luminescence intensity to the lowest drug concentration. GraphPad Prism was used to plot and calculate LD50 values from the cytotoxic kill curves. Curves were fit to a non-linear regression model, with compound concentration vs. response and variable slope (four parameters).

[1] = non-GLP multi-dose toxicity study (dose escalation, daily IP injection); format: in vivo, mouse (6-week-old Balb/c females); conditions: mice
Procedure: An initial non-GLP multi-dose toxicity study of Cmpd11 and Cmpd66 was performed, which included a comparison to COM1 and COM3 clinical compounds. […] Body weights were recorded 2× weekly for healthy mice followed by weekly in the recovery phase. Blood draws were taken, retro-orbitally, every other week (for a total of three blood draws per group) to determine the plasma levels of compounds throughout the duration of the study (unless mice were euthanized prior to completion of the 28-day dosing period). […] Any animals showing more than 9% weight loss were weighed every day and animals were euthanized after a weight loss of 15% or more or evidence of high distress (e.g., listless, hunched posture, high grimace score). Also, plasma samples were drawn at euthanasia. Control groups included vehicle only and no manipulation.
A summary of the study is illustrated in FIG. 14. There are six groups with 90 mice total and following is an overview of groups for the study.
The following are criteria for dose escalation and staggering of group starting points. Animals in each group are monitored after the initial dose for 3-4 days, and if there is no observed dose-limiting toxicity (DLT), then a separate cohort of naïve animals are administered the next higher dose level. Note that each cohort of animals receives the same drug and drug dose for the duration of the 28-day dosing period unless euthanasia is required. Animals in the second, dose-escalated group, are then monitored for 3-4 days, and if there is no observed DLT, animals from a fresh cohort are administered the next higher dose level, while continuing with the former cohorts up to 5 dose levels total. Animals in each cohort then are monitored after the third dose for 7 days, and if there is no observed DLT, then animals are administered the next higher doses. If DLT is observed during a monitoring period for any dose level, a subsequent dose is reduced by a level that is intermediate between the highest tolerated level tested and the minimum toxic level tested.

In the case of `Cc1ccc(Nc2ncc3cccc(-c4ccc(F)cc4OC(C)C)c3n2)cc1NC(=O)c1ccc(C(=O)N(C)C)cc1` [Cmpd11, N1-(5-((8-(4-fluoro-2-isopropoxyphenyl)quinazolin-2-yl)amino)-2-methylphenyl)-N4,N4-dimethylterephthalamide], the IC50 (K562) is reported as 0.403 µM, the “tolerability relative to COM1” value ([1]; at doses required to reach the in vitro K562-Luc EC50 plasma levels in vivo, early results) is reported as “more tolerable than COM1” and the tolerability ([1]; daily IP, 1.5 mg/kg, through day 24) is reported as “well tolerated”. The tolerability ([1]; daily IP, 4.5 mg/kg, through day 14) was “well tolerated” and the mortality at 168 h ([1]; mouse, in vivo, daily IP, 18 mg/kg (12X EC50), by day 7, read-out: expiration of animals (2 out of 5)) was 40%.
